Data taken from patent publication US20250171434A1, “SEC61 INHIBITORS AND USE THEREOF” (KEZAR LIFE SCIENCES, INC., priority 2022, published 2025).

Legend:
CD47(ss + 10)Gluc = assay: Dox-Induced CD47-ss-Gluc Assay; type: cell-based; settings: Flp-In 293 T-REx cells, 24 hours with doxycycline; Table 1; read-out: 24 hr Dox Inducible CD47(ss + 10)Gluc 293FRT/TO: Mean IC50
[1] = Liver Microsome Stability Assay, mouse; type: in vitro ADME; settings: mouse liver microsomes 1.0 mg/mL, 1.0 uM compound, 37° C., 1 mM NADPH
How it was run: (§1)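 Compound at 1.0 uM (0.4% DMSO) was incubated at 37° C with 1.0 mg/mL liver microsomes in 0.1 M potassium phosphate, with or without 1 mM NADPH. Samples were quenched at 0 and 30 minutes.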

[2] = test system: IL6R-ss+10aa/Gaussia Luciferase; assay: Dox-induced IL-6R-ss-Gluc Assay; type: cell-based; settings: Table 1; for IC50: Flp-In 293 T-REx cells, 24 hours with doxycycline, read-out: 24hr Dox Inducible IL6R(ss + 10)Gluc 293FRT/TO: Mean IC50; for 24hr Dox Inducible IL6R(ss + 10)Gluc 293FRT/TO: IL6R/PD1: ratio of IC50s IL6R/PD1
How it was run: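 Flp-In 293 T-REx cells stably carrying a doxycycline-inducible IL6R signal sequence+10 aa fused to Gaussia luciferase. Cells plated the day before; compound dilutions added in DMSO/media containing doxycycline and incubated at 37 °C, 5% CO2.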

[3] = test system: multiple myeloma cell line NCI-H929; assay: H929 Cell Viability Assay; type: cell-based, human; settings: Homo sapiens; NCI-H929 cells, 48 hours, Celltiter-Glo; read-out: 48 hr H929 Viability Celltiter-Glo: Mean EC50
How it was run: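 NCI-H929 cells in RPMI 1640 with 10% FBS were treated with compound dilutions for 48 h at 37° C, 5% CO2. Viability was read by CellTiter-Glo luminescence. Undefined stereocentres denote stereoisomer mixtures.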

[4] = Liver Microsome Stability Assay, human; type: in vitro ADME; settings: human liver microsomes 1.0 mg/mL, 1.0 uM compound, 37° C., 1 mM NADPH
How it was run: as §1

[5] = test system: PD1-ss+10aa/Gaussia Luciferase; assay: Dox-Induced PD1-ss-Gluc Assay; type: cell-based; settings: Flp-In 293 T-REx cells, 24 hours with doxycycline; Table 1; read-out: 24 hr Dox Inducible PD1ssGluc 293FRT/TO: Mean IC50
How it was run: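 Flp-In 293 T-REx, stable line; Tet-regulated PD1-ss+10aa fused to Gaussia luciferase; plated day prior; cpd + doxycycline in DMSO/media; 37 °C, 5% CO2.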

[6] = test system: IL-2-FL/Gaussia Luciferase; assay: Dox Inducible IL2-FL-Gluc Assay; type: cell-based; settings: Table 1; for IC50: Flp-In 293 T-REx cells, 24 hours with doxycycline, read-out: 24 hr Dox Inducible IL2FLGluc 293FRT/TO: Mean IC50; for 24 hr Dox Inducible IL2FLGluc 293FRT/TO: IL2/PD1: ratio of IC50s IL2/PD1
How it was run: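 Stable Flp-In 293 T-REx cells carrying doxycycline-inducible full-length IL-2 (aa 1-153) fused to Gaussia luciferase, plated the day before assay. Compound dilutions added in medium containing doxycycline, incubated at 37 °C, 5% CO2. Undefined stereocentres mean data refer to stereoisomer mixtures.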

[7] = Liver Microsome Stability Assay, monkey; type: in vitro ADME; settings: monkey liver microsomes 1.0 mg/mL, 1.0 uM compound, 37° C., 1 mM NADPH
How it was run: as §1

[8] = Liver Microsome Stability Assay, rat; type: in vitro ADME; settings: rat liver microsomes 1.0 mg/mL, 1.0 uM compound, 37° C., 1 mM NADPH
How it was run: as §1

[9] = test system: multiple myeloma cell line U266B1; assay: U266 Cell Viability Assay; type: cell-based; settings: Homo sapiens, U-266; U266B1 cells, 48 hours, Celltiter-Glo; read-out: 48 hr U266 Viability Celltiter-Glo: Mean EC50
How it was run: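 U266B1 multiple myeloma cells in RPMI 1640/10% FBS were treated with compound dilutions for 48 h at 37 °C, 5% CO2. Viability was measured by CellTiter-Glo luminescence; compounds drawn without stereochemistry were tested as stereoisomer mixtures.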

Row | Structure (SMILES) | IC50 (CD47(ss + 10)Gluc) [µM] | Liver Microsome Stability (Multiple Species): Mouse - % Remaining after 30 min w/ NADPH (%) [1] [%] | IC50 [2] [µM] | 24hr Dox Inducible IL6R(ss + 10)Gluc 293FRT/TO: IL6R/PD1 [2] | EC50 [3] [µM] | Liver Microsome Stability (Multiple Species): Human - % Remaining after 30 min w/ NADPH (%) [4] [%] | IC50 [5] [µM] | IC50 [6] [µM] | 24 hr Dox Inducible IL2FLGluc 293FRT/TO: IL2/PD1 [6] | Liver Microsome Stability (Multiple Species): Monkey - % Remaining after 30 min w/ NADPH (%) [7] [%] | Liver Microsome Stability (Multiple Species): Rat - % Remaining after 30 min w/ NADPH (%) [8] [%] | EC50 [9] [µM]
1 | [2H]C([2H])([2H])Oc1cc(C(=O)Nc2nc(/C=C/c3ncn(C4CC4)c3Cl)cs2)n(Cc2ccnc(F)c2F)c1 [Compound A22, (E)-N-(4-(2-(5-chloro-1-cyclopropyl-1H-imidazol-4-yl)vinyl)thiazol-2-yl)-1-((2,3-difluoropyridin-4-yl)methyl)-4-(methoxy-d3)-1H-pyrrole-2-carboxamide] | 5.53 | 69 | > 25 | >741 | > 25 | 16 | 0.034 | > 25 | >740 | 9 | 33 | > 25
2 | Cc1c(Cn2cc(OC(F)F)cc2C(=O)Nc2nc(/C=C/c3ncn(C4CC4)c3Cl)cs2)ccnc1F [Compound A23, (E)-N-(4-(2-(5-chloro-1-cyclopropyl-1H-imidazol-4-yl)vinyl)thiazol-2-yl)-4-(difluoromethoxy)-1-((2-fluoro-3-methylpyridin-4-yl)methyl)-1H-pyrrole-2-carboxamide] | > 25 | 55 | > 25 | >680 | > 25 | 20 | 0.037 | > 25 | >540 | 8 | 31 | > 25
3 | Cc1cnc(F)cc1Cn1cc(OC(F)F)cc1C(=O)Nc1nc(/C=C/c2ncn(C3CC3)c2Cl)cs1 [Compound A24, (E)-N-(4-(2-(5-chloro-1-cyclopropyl-1H-imidazol-4-yl)vinyl)thiazol-2-yl)-4-(difluoromethoxy)-1-((2-fluoro-5-methylpyridin-4-yl)methyl)-1H-pyrrole-2-carboxamide] | 5.53 | 77 | 9.97 | 1283 | > 25 | 20 | 0.008 | 11.5 | 1100.0 | 12 | 30 | > 25
4 | Cc1cnc(F)c(C)c1Cn1cc(OC(F)F)cc1C(=O)Nc1nc(/C=C/c2ncn(C3CC3)c2Cl)cs1 [Compound A26, (E)-N-(4-(2-(5-chloro-1-cyclopropyl-1H-imidazol-4-yl)vinyl)thiazol-2-yl)-4-(difluoromethoxy)-1-((2-fluoro-3,5-dimethylpyridin-4-yl)methyl)-1H-pyrrole-2-carboxamide] | > 25 | 70 | > 25 | 28 | > 25 | 29 | 0.877 | > 25 | >22 | 16 | 40 | > 25
5 | N#Cc1c(/C=C/c2csc(NC(=O)c3cc(OC(F)F)cn3Cc3ccnc(F)c3)n2)ncn1C1CC1 [Compound A27, (E)-N-(4-(2-(5-cyano-1-cyclopropyl-1H-imidazol-4-yl)vinyl)thiazol-2-yl)-4-(difluoromethoxy)-1-((2-fluoropyridin-4-yl)methyl)-1H-pyrrole-2-carboxamide] | 2.55 | 70 | 2.11 | 235 | 17.8 | 78 | 0.009 | 3.09 | 340.0 | 47 | 2 | > 25
6 | N#Cc1c(/C=C/c2csc(NC(=O)c3cc(Cl)cn3Cc3ccnc(F)c3)n2)ncn1C1CC1 [Compound A28, (E)-4-chloro-N-(4-(2-(5-cyano-1-cyclopropyl-1H-imidazol-4-yl)vinyl)thiazol-2-yl)-1-((2-fluoropyridin-4-yl)methyl)-1H-pyrrole-2-carboxamide] | 1.4 | 67 | 1.49 | 68 | > 25 | 22 | 0.022 | 1.51 | 69.0 | 9 | 2 | 15.5
7 | O=C(Nc1nc(/C=C/c2ncn(C3CC3)c2Cl)cs1)c1cc(C(F)F)cn1Cc1ccnc(F)c1 [Compound A29, (E)-N-(4-(2-(5-chloro-1-cyclopropyl-1H-imidazol-4-yl)vinyl)thiazol-2-yl)-4-(difluoromethyl)-1-((2-fluoropyridin-4-yl)methyl)-1H-pyrrole-2-carboxamide] | > 25 | 21 | > 25 | >517 | > 25 | 51 | 0.048 | > 25 | >650 | 43 | 1 | > 25
8 | O=C(Nc1nc(/C=C/c2ncn(C3CC3)c2Cl)cs1)c1cc(C(F)(F)F)cn1Cc1ccnc(F)c1 [Compound A30, (E)-N-(4-(2-(5-chloro-1-cyclopropyl-1H-imidazol-4-yl)vinyl)thiazol-2-yl)-1-((2-fluoropyridin-4-yl)methyl)-4-(trifluoromethyl)-1H-pyrrole-2-carboxamide] | 2.39 | 44 | 2.16 | 292 | > 25 | 63 | 0.007 | 2.13 | 290.0 | 70 | <1 | > 25
